# From patent US6365616B1, “Methimazole derivatives and tautomeric cyclic thiones to treat autoimmune diseases” (Sentron Medical, Inc., priority 1998, dated 2002)
# How the values were obtained:
# [1] = tested on: thyroglobulin RNA; experiment: Northern analysis of thyroglobulin RNA levels in FRTL-5 cells; type: cell-based, rat; conditions: for % increase in TG RNA expression: 1 mM, 6H medium, 40 hours
# [2] = tested on: MHC class II RNA; experiment: Northern analysis of MHC class II RNA levels in FRTL-5 cells; type: cell-based, rat; conditions: 100 U/ml γ-interferon, 6H medium, 40 hours
# [3] = tested on: NOD mice; experiment: Prevention of glucosuria and diabetes in female NOD mice; type: in vivo, mouse; conditions: 5-phenylmethimazole at a fifth the MMI concentration
# Description: Female NOD mice were also obtained from Jackson Labs, along with control mice from which the strain was developed (Makino et al., Exp. Anim. 29:1-13 (1980); Wicker, L. S., et al., Diabetes 35:855-860 (1986)). Animals showing urine Tes-Tape positivity greater than 1 + were considered positive and to have diabetes (Wicker, L. S., et al., ibid (1986)). At 8-16 weeks, […] of NOD mice develop glucosuria and diabetes according to the literature (Wicker, L. S., et al., ibid (1986)).
# Table 20 presents results of the ability of Female NOD mice (5 animals were in each group) to develop glucosuria and diabetes when treated with MMI and compound 10 (5-phenylmethimazole) at a fifth the MMI concentration, by comparison to no treatment or treatment with 2-mercaptoimidazole. Mice were from Jackson Labs in this experiment. Animals showing urine Tes-Tape positivity greater than 1+ were considered positive and to have diabetes.
# Compound 10 and MMI are therefore effective in preventing diabetes in the NOD mouse example of diabetes.
Compound,% increase in TG RNA expression [1],"increase of TG RNA levels ([1]; Table 17, 1 mM)",% inhibition of class II RNA expression ([2]; 100 μM),% inhibition of class II RNA expression ([2]; 1 mM),development of glucosuria and diabetes by 12 weeks [3],"increase of TG RNA levels compared with MMI ([1]; Table 17, 1 mM)"
"Cn1ccnc1S [Compound 1, 1-Methylimidazole-2-thiol]",207 ± 10%,~2 fold,None,29 ± 9%,prevented glucosuria,
"Cc1ncc([N+](=O)[O-])n1CCO [Compound 2, 2-Methyl-5-nitro-1-imidazole ethanol]",,,11 ± 10%,45 ± 13%,,
"Sc1ncc[nH]1 [Compound 3, 2-Mercaptoimidazole]",,,,,developed diabetes,
"CSc1nccn1C [Compound 7, S-Methylmethimazole]",122 ± 14%,,22 ± 17%,62 ± 14%,,no comparable increase
"Cn1ccn(C)c1=S [Compound 8, N-Methylmethimazole]",129 ± 7%,,32 ± 5%,59 ± 12%,,no comparable increase
"Cn1c(-c2ccccc2)cnc1S [Compound 10, 5-Phenylmethimazole]",,,75 ± 15%,87 ± 4%,prevented glucosuria,no comparable increase
